Reference: US5618675A, “Methods and compositions for detecting lipopolysaccharides using CAP18 fragments” (Panorama Research, Inc., dated 1997)

Test system: multiple drug-resistant Mycobacterium tuberculosis
Test: Antimicrobial activity
Assay type: cell-based
Conditions: range 0-20 μg/ml

Substance | activity versus multiple drug-resistant Mycobacterium tuberculosis
36-1: synthetic rabbit RNIP-derived fragment, amino acids 135-166 of SEQ ID NO:4 (GLRKRLRKFRNKIKEKLKKIGQKIQGLLPKLA) | inactive
RNIP: reactive nitrogen inhibitory protein, amino acids 135-171 of SEQ ID NO:4 (rabbit CAP18 C-terminus); purified from granulocytes or synthetic (#197) (GLRKRLRKFRNKIKEKLKKIGQKIQGLLPKLAPRTDY) | inactive
